{"source": "paper PMC7827406", "about": "“Structure–Activity Relationship (SAR) Study of Spautin-1 to Entail the Discovery of Novel NEK4 Inhibitors” (International Journal of Molecular Sciences, 2021)", "experiment_in_all_cases": "biochemical", "set-up_in_all_cases": "Eurofins KinaseProfiler full panel at Km ATP, residual kinase activity (%) relative to DMSO", "key": {"STK32C(h)": {"target": "STK32C(h) (Homo sapiens, UniProt Q86UX6)", "sequence (Q86UX6 whole entry)": "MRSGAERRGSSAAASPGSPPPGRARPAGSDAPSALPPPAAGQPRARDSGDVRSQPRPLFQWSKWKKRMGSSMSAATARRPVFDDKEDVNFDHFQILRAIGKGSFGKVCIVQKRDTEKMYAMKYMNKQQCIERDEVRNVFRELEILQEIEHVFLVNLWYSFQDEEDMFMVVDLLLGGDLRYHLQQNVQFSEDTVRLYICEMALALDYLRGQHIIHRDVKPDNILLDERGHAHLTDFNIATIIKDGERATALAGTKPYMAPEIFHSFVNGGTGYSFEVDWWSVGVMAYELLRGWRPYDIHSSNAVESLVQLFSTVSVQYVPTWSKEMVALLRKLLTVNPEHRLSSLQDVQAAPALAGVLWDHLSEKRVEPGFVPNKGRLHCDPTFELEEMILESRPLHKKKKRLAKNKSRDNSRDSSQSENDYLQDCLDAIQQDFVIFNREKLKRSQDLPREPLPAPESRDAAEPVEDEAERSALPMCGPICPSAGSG", "summary_of_the_method": "(§1)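 Two 10 µM single-concentration screens were run: a competition-binding screen, in which DNA-tagged kinase bound to immobilized ligands was quantified by qPCR, and a radiometric activity panel at Km ATP. Each is expressed as residual kinase activity (%).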"}, "DMPK(h)": {"target": "T1, DMPK(h) (Homo sapiens, UniProt Q09013)", "T1 sequence (Q09013 1-629)": "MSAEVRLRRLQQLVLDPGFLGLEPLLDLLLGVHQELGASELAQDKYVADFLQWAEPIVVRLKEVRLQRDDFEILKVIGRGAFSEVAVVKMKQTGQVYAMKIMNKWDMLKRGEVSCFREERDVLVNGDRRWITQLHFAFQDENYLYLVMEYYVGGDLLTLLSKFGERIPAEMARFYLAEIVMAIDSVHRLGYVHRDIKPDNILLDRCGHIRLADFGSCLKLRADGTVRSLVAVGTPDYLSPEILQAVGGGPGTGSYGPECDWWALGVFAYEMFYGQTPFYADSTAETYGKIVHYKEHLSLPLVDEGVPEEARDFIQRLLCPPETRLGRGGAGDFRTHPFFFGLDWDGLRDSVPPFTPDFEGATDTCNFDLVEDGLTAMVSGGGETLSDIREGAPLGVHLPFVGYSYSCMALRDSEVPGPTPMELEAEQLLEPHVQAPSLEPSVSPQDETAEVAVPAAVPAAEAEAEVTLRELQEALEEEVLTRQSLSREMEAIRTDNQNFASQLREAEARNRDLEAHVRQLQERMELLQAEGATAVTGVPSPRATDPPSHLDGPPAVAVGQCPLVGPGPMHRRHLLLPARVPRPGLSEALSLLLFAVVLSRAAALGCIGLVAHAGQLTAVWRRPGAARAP", "summary_of_the_method": "as §1"}, "MEK1(h)": {"target": "T2, MEK1(h) (Homo sapiens, UniProt Q02750)", "T2 construct": "gene MAP2K1", "summary_of_the_method": "as §1"}, "Lyn(m)": {"target": "Lyn(m) (Mus musculus, UniProt P25911)", "sequence (P25911 whole entry)": "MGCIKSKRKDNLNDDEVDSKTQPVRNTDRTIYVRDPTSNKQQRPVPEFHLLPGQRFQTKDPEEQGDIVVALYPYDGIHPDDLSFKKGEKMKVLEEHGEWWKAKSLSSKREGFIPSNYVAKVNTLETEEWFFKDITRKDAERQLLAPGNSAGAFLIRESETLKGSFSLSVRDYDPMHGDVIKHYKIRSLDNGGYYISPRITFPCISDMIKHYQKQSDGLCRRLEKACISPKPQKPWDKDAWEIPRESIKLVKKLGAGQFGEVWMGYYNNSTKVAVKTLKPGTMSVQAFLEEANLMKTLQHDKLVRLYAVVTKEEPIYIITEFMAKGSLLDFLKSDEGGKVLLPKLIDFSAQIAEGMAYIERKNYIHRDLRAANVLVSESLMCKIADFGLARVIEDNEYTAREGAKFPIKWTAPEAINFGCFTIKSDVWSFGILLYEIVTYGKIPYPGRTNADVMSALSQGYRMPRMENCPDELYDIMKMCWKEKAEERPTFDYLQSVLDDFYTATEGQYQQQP", "summary_of_the_method": "as §1"}, "CDK5/p35(h)": {"target": "T3, CDK5/p35(h) (Homo sapiens, UniProt Q00535)", "T3 construct": "p35", "summary_of_the_method": "as §1"}, "PKCμ(h)": {"target": "T4, PKCμ(h) (Homo sapiens, UniProt Q15139)", "T4 construct": "gene PRKD1", "T4 sequence (Q15139 1-912)": "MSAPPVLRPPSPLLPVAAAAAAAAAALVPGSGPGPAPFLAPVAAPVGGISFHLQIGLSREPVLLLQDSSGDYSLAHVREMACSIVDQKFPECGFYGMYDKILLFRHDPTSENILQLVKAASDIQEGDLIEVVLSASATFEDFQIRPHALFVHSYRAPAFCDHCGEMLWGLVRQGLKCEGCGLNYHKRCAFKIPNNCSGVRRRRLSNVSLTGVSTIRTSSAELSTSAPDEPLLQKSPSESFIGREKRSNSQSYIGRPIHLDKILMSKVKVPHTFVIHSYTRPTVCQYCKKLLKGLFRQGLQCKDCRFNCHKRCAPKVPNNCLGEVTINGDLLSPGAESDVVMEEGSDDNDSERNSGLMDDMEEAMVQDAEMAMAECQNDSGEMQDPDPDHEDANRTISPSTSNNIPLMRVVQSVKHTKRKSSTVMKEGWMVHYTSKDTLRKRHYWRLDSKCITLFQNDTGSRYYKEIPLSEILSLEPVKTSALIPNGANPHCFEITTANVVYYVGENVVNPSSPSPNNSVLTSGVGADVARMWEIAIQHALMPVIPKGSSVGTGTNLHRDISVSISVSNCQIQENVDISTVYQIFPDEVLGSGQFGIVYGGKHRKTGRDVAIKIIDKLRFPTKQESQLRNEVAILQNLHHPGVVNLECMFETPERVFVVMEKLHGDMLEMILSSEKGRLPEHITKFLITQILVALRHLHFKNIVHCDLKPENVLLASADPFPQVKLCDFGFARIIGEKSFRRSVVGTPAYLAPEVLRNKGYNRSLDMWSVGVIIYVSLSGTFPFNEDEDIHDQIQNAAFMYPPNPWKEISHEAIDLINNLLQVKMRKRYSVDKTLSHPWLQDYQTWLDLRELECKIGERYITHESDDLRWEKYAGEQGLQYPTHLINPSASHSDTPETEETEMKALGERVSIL", "summary_of_the_method": "as §1"}, "PKCθ(h)": {"target": "T5, PKCθ(h) (Homo sapiens, UniProt Q04759)", "T5 construct": "gene PRKCQ", "summary_of_the_method": "as §1"}, "MSSK1(h)": {"target": "T6, MSSK1(h) (Homo sapiens, UniProt Q9UPE1)", "T6 construct": "gene SRPK3", "summary_of_the_method": "as §1"}, "DAPK1(h)": {"target": "DAPK1(h) (Homo sapiens, UniProt P53355)", "sequence (P53355 whole entry)": "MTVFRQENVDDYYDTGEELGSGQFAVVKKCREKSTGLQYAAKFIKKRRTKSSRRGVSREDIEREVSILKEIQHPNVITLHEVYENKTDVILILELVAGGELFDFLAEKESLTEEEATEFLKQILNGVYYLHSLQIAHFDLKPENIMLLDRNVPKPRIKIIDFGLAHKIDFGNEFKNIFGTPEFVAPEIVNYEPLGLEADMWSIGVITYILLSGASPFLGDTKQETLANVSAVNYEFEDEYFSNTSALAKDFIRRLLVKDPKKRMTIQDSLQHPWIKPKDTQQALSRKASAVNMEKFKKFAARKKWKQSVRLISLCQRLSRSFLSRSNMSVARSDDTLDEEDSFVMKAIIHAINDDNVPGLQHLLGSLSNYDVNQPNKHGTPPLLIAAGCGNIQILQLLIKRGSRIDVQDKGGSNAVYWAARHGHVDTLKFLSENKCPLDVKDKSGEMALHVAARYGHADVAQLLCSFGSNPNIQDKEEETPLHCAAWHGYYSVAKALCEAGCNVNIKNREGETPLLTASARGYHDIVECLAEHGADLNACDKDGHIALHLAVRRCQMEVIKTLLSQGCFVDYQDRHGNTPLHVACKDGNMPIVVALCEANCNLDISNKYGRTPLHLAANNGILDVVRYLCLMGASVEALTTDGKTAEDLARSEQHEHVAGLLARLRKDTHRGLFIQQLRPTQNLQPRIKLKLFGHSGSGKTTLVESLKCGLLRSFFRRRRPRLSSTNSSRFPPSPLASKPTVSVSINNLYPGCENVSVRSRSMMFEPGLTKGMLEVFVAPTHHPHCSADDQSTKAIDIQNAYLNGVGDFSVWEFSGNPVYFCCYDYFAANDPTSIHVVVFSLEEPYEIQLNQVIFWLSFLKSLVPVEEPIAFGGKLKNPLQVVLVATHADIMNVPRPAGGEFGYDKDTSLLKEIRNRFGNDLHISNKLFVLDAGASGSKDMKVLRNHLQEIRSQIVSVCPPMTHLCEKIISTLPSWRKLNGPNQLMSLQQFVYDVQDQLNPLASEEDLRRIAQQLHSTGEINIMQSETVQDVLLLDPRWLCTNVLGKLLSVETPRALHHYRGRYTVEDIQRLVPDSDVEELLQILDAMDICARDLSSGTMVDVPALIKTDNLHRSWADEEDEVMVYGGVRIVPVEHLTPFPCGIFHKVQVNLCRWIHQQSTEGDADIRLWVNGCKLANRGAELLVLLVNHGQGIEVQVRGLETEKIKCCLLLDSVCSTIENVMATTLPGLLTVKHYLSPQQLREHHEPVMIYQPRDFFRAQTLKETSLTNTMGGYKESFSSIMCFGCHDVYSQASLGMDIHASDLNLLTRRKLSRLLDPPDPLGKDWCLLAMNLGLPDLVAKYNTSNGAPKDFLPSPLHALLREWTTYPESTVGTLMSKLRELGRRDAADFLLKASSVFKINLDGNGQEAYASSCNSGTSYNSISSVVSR", "summary_of_the_method": "as §1"}, "EGFR(L861Q)(h)": {"target": "EGFR(L861Q)(h) (Homo sapiens, UniProt P00533, L861Q)", "sequence (P00533 whole entry L861Q)": "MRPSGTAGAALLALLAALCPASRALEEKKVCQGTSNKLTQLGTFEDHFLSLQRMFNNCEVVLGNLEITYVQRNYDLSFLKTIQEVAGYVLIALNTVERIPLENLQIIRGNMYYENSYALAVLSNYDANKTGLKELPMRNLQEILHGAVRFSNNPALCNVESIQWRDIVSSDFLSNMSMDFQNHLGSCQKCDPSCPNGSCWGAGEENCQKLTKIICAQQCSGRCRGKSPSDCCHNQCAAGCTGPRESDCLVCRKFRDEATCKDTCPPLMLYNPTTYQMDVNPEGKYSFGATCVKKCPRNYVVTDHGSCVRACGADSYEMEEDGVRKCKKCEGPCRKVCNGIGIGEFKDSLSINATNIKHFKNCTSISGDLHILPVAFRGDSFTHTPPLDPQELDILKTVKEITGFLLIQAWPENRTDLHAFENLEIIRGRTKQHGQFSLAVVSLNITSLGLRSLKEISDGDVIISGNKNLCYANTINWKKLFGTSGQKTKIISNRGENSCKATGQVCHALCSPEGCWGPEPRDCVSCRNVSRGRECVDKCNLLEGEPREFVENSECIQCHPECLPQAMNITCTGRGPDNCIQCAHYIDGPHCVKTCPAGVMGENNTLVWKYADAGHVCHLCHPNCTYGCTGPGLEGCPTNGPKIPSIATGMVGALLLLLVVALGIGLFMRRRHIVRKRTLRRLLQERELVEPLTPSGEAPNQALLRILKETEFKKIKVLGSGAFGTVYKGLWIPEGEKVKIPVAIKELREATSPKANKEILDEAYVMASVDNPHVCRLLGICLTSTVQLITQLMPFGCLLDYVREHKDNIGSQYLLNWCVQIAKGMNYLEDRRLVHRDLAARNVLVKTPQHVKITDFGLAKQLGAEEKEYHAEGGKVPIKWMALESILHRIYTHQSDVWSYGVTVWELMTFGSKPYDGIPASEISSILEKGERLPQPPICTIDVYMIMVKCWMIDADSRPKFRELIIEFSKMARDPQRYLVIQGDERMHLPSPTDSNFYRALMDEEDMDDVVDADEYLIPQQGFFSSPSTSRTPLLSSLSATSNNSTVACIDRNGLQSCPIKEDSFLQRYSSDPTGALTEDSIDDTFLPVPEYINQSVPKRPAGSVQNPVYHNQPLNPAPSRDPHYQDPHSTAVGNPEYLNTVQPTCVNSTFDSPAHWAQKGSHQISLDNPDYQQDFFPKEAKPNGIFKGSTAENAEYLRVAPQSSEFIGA", "summary_of_the_method": "as §1"}, "[1]": {"conditions": "read-out: Residual activity (%) 5ay"}, "[2]": {"conditions": "read-out: Residual activity (%) Spautin-1 5aa"}, "[3]": {"conditions": "read-out: Residual activity (%) 5at"}, "[4]": {"conditions": "read-out: Residual activity (%) 5as"}}, "note": "Read-outs that look alike come from different tables or passages of the source."}
{"smiles": "COc1ccc2ncnc(Nc3cccc(F)c3)c2c1", "note": "[5ay, N-(3-Fluorophenyl)-6-Methoxy-4-Quinazolinamine]", "values": [{"measurement": "remaining activity at 10 µM", "setting": "STK32C(h); [1]", "value": 102, "unit": "%"}, {"measurement": "remaining activity at 10 µM", "setting": "DMPK(h); [1]", "value": 99, "unit": "%"}, {"measurement": "remaining activity at 10 µM", "setting": "MEK1(h); [1]", "value": 93, "unit": "%"}, {"measurement": "remaining activity at 10 µM", "setting": "Lyn(m); [1]", "value": 93, "unit": "%"}, {"measurement": "remaining activity at 10 µM", "setting": "CDK5/p35(h); [1]", "value": 89, "unit": "%"}, {"measurement": "remaining activity at 10 µM", "setting": "PKCμ(h); [1]", "value": 93, "unit": "%"}, {"measurement": "remaining activity at 10 µM", "setting": "PKCθ(h); [1]", "value": 117, "unit": "%"}, {"measurement": "remaining activity at 10 µM", "setting": "MSSK1(h); [1]", "value": 81, "unit": "%"}, {"measurement": "remaining activity at 10 µM", "setting": "DAPK1(h); [1]", "value": 95, "unit": "%"}]}
{"smiles": "Fc1ccc(CNc2ncnc3ccc(F)cc23)cc1", "note": "[5aa, 6-Fluoro-N-(4-fluorobenzyl)-4-Quinazolinamine]", "values": [{"measurement": "remaining activity at 10 µM", "setting": "STK32C(h); [2]", "value": 106, "unit": "%"}, {"measurement": "remaining activity at 10 µM", "setting": "DMPK(h); [2]", "value": 79, "unit": "%"}, {"measurement": "remaining activity at 10 µM", "setting": "MEK1(h); [2]", "value": 91, "unit": "%"}, {"measurement": "remaining activity at 10 µM", "setting": "Lyn(m); [2]", "value": 81, "unit": "%"}, {"measurement": "remaining activity at 10 µM", "setting": "CDK5/p35(h); [2]", "value": 87, "unit": "%"}, {"measurement": "remaining activity at 10 µM", "setting": "PKCμ(h); [2]", "value": 97, "unit": "%"}, {"measurement": "remaining activity at 10 µM", "setting": "PKCθ(h); [2]", "value": 80, "unit": "%"}, {"measurement": "remaining activity at 10 µM", "setting": "MSSK1(h); [2]", "value": 85, "unit": "%"}, {"measurement": "remaining activity at 10 µM", "setting": "DAPK1(h); [2]", "value": 102, "unit": "%"}, {"measurement": "remaining activity at 10 µM", "setting": "EGFR(L861Q)(h); [2]", "value": 36, "unit": "%"}]}
{"smiles": "Fc1ccc2ncnc(NCCc3ccc(Cl)cc3)c2c1", "note": "[5at, N-[2-(4-Chlorophenyl)Ethyl]-6-Fluoro-4-Quinazolinamine]", "values": [{"measurement": "remaining activity at 10 µM", "setting": "STK32C(h); [3]", "value": 106, "unit": "%"}, {"measurement": "remaining activity at 10 µM", "setting": "DMPK(h); [3]", "value": 80, "unit": "%"}, {"measurement": "remaining activity at 10 µM", "setting": "MEK1(h); [3]", "value": 73, "unit": "%"}, {"measurement": "remaining activity at 10 µM", "setting": "Lyn(m); [3]", "value": 77, "unit": "%"}, {"measurement": "remaining activity at 10 µM", "setting": "CDK5/p35(h); [3]", "value": 87, "unit": "%"}, {"measurement": "remaining activity at 10 µM", "setting": "PKCμ(h); [3]", "value": 80, "unit": "%"}, {"measurement": "remaining activity at 10 µM", "setting": "PKCθ(h); [3]", "value": 90, "unit": "%"}, {"measurement": "remaining activity at 10 µM", "setting": "MSSK1(h); [3]", "value": 95, "unit": "%"}, {"measurement": "remaining activity at 10 µM", "setting": "DAPK1(h); [3]", "value": 89, "unit": "%"}, {"measurement": "remaining activity at 10 µM", "setting": "EGFR(L861Q)(h); [3]", "value": 73, "unit": "%"}]}
{"smiles": "Fc1ccc(CCNc2ncnc3ccc(F)cc23)cc1", "note": "[5as, 6-Fluoro-N-[2-(4-Fluorophenyl)Ethyl]-4-Quinazolinamine]", "values": [{"measurement": "remaining activity at 10 µM", "setting": "STK32C(h); [4]", "value": 95, "unit": "%"}, {"measurement": "remaining activity at 10 µM", "setting": "DMPK(h); [4]", "value": 90, "unit": "%"}, {"measurement": "remaining activity at 10 µM", "setting": "MEK1(h); [4]", "value": 84, "unit": "%"}, {"measurement": "remaining activity at 10 µM", "setting": "Lyn(m); [4]", "value": 91, "unit": "%"}, {"measurement": "remaining activity at 10 µM", "setting": "CDK5/p35(h); [4]", "value": 87, "unit": "%"}, {"measurement": "remaining activity at 10 µM", "setting": "PKCμ(h); [4]", "value": 85, "unit": "%"}, {"measurement": "remaining activity at 10 µM", "setting": "PKCθ(h); [4]", "value": 100, "unit": "%"}, {"measurement": "remaining activity at 10 µM", "setting": "MSSK1(h); [4]", "value": 91, "unit": "%"}, {"measurement": "remaining activity at 10 µM", "setting": "DAPK1(h); [4]", "value": 90, "unit": "%"}, {"measurement": "remaining activity at 10 µM", "setting": "EGFR(L861Q)(h); [4]", "value": 51, "unit": "%"}]}
